We go through 21 molecules from patent EP3928779A1 (Chugai Seiyaku Kabushiki Kaisha, priority 2014, dated 2016).

The experiment has as its system rat small-intestinal brush border membrane vesicles. The experiment is described as follows: Inhibitory effect on 33PO4 uptake into rat small-intestinal brush border membrane vesicles (rapid filtration method). Type of experiment: biochemical. The following applies: 33PO4 uptake into rat small-intestinal BBMVs; test compound 1 µM; reacted for 60 seconds. The procedure, abridged: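 Uptake of ^33PO4 was measured by rapid filtration and liquid scintillation counting of filter-retained vesicles, after quenching with ice-cold 110 mM NaCl/1 mM KH2PO4/10 mM HEPES pH 7.5. Vesicles were brush border membranes from the upper small intestine of female Wistar rats aged 4–5 weeks.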
Turning to `C[C@]12CCCN1N(CCCC(F)(F)F)C(=O)C(C(=O)Nc1ccc(C(F)(F)F)cc1-c1cc(C(F)(F)F)ncn1)=C2O` [Example 234, (4aR)-4-Hydroxy-4a-methyl-2-oxo-1-(4,4,4-trifluorobutyl)-N-[4-(trifluoromethyl)-2-[6-(trifluoromethyl)pyrimidin-4-yl]henyl]-6,7-dihydro-5H-pyrrolo[1,2-b]pyridazine-3-carboxamide], the “Rate of uptake inhibition (%) (1 µM)” value is reported as 73%.

Consider `CN1N(Cc2ccc(OCCCOC[C@H](O)CO)c(F)c2F)C(=O)C(C(=O)Nc2ccc(C(F)(F)F)cc2-c2ccc(C(F)(F)F)nc2)=C(O)C12CCCC2` [Example 386], for which the “Rate of uptake inhibition (%) (1 µM)” value stood at 36%.

For `C[C@]12CCCN1N(Cc1cccc(F)c1F)C(=O)C(C(=O)Nc1cc(F)c(Br)c(F)c1)=C2O` [Example 29], the “Rate of uptake inhibition (%) (1 µM)” value turned out to be 75%.

For the molecule `Cc1c(-c2cc(C(F)(F)F)ccc2NC(=O)C2=C(O)C3(CCC3)N(C)N(Cc3ccc(OCCN4CCOCC4)c(F)c3F)C2=O)ncnc1C(F)(F)F` [Example 285], the “Rate of uptake inhibition (%) (1 µM)” value stood at 62%.

For `CN(CCOc1ccc(CN2C(=O)C(C(=O)Nc3ccc(C(F)(F)F)cc3-c3cc(C(F)(F)F)ncn3)=C(O)C3(CCCC3)N2C)c(F)c1F)C1CCOC1` (stereo not drawn) [Example 366], the “Rate of uptake inhibition (%) (1 µM)” value is on record as 38%.

In the case of `C[C@]12CCCN1N(Cc1c(F)cc(C#CCN3CCOCC3)cc1F)C(=O)C(C(=O)Nc1ccc(C(F)(F)F)cc1-c1ccc(C(F)(F)F)nc1)=C2O` [Example 132], the “Rate of uptake inhibition (%) (1 µM)” value is given as 71%.

On to `CN1N(Cc2ccc(OCCn3cncn3)c(F)c2F)C(=O)C(C(=O)Nc2ccc(C(F)(F)F)cc2-c2cc(C(F)(F)F)ncn2)=C(O)C12CCC2` [Example 352], for which the “Rate of uptake inhibition (%) (1 µM)” value is reported as 27%.

On to `CN(CCOCCOCCOCCOCCOc1ccc(CN2C(=O)C(C(=O)Nc3ccc(C(F)(F)F)cc3-c3cc(C(F)(F)F)ncn3)=C(O)C3(CCCC3)N2C)c(F)c1F)C[C@@H](O)[C@H](O)[C@@H](O)[C@@H](O)CO` [Example 421, 7-[[2,3-Difluoro-4-[2-[2-[2-[2-[2-[methyl-[(2R,3S,4S,5S)-2,3,4,5,6-pentahydroxyhexyl]amino]ethoxy]ethoxy]ethoxy]ethoxy]ethoxy]phenyl]methyl]-10-hydroxy-6-methyl-8-oxo-N-[4-(trifluoromethyl)-2-[6-(trifluoromethyl)pyrimidin-4-yl]phenyl]-6,7-diazaspiro[4.5]dec-9-ene-9-carboxamide], for which the “Rate of uptake inhibition (%) (1 µM)” value stood at 24%.

Take `C[C@]12CCCN1N(Cc1ccccc1F)C(=O)C(C(=O)Nc1ccc(C(F)(F)F)cc1-c1cc(C(F)(F)F)ncn1)=C2O` [Example 207]: the “Rate of uptake inhibition (%) (1 µM)” value is 73%.

Take `Cc1cc(-c2cc(C(F)(F)F)ccc2NC(=O)C2=C(O)[C@@]3(C)CCCN3N(Cc3cccc(F)c3F)C2=O)cnc1C#N` [Example 101]: the “Rate of uptake inhibition (%) (1 µM)” value was 57%.

Consider `CSc1ccc(-c2cc(C(F)(F)F)ccc2NC(=O)C2=C(O)[C@@]3(C)CCCN3N(Cc3ccc(C#CCCCCC(=O)O)c(F)c3F)C2=O)cn1` [Example 117, 7-[4-[[(4aR)-4-Hydroxy-4a-methyl-3-[[2-(6-methylsulfanylpyridin-3-yl)-4-(trifluoromethyl)phenyl]carbamoyl]-2-oxo-6.7-dihydro-5H-pyrrolo[1.2-b]pyridazin-1-yl]methyl]-2,3-difluorophenyl]hept-6-ynoate], for which the “Rate of uptake inhibition (%) (1 µM)” value stood at 78%.

In the case of `C[C@]12CCCN1N(Cc1ccc(OCCCCOC[C@H](O)CO)c(F)c1F)C(=O)C(C(=O)Nc1ccc(Cl)cc1-c1ccc(C(F)(F)F)nc1)=C2O` [Example 121, (4aR)-N-[4-Chloro-2-[6-(trifluoromethyl)pyridin-3-yl]phenyl]-1-[[4-[4-[(2R)-2,3-dihydroxypropoxy]butoxy]-2,3-difluorophenyl]methyl]-4-hydroxy-4a-methyl-2-oxo-6,7-dihydro-5H-pyrrolo[1,2-b]pyridazine-3-carboxamide], the “Rate of uptake inhibition (%) (1 µM)” value came out at 72%.

Take `COCCN(C)CCOc1c(-c2cccnc2)cc(CN2C(=O)C(C(=O)Nc3ccc(C(F)(F)F)cc3-c3cc(C(F)(F)F)ncn3)=C(O)C3(CCCC3)N2C)c(F)c1F` [Example 440, 9-[[2,3-Difluoro-4-[2-[2-methoxyethyl(methyl)amino]ethoxy]-5-(3-pyridinyl)phenyl]methyl]-6-hydroxy-10-methyl-8-oxo-N-[4-(trifluoromethyl)-2-[6-(trifluoromethyl)pyrimidin-4-yl]phenyl]-9,10-diazaspiro[4.5]dec-6-ene-7-carboxamide]: the “Rate of uptake inhibition (%) (1 µM)” value is 28%.

With `COC(=O)COc1ccc(CN2C(=O)C(C(=O)Nc3ccc(C(F)(F)F)cc3-c3ccc(C(F)(F)F)nc3)=C(O)[C@@]3(C)CCCN23)c(F)c1F` [Example 150, Methyl 2-[4-[[(4aR)-4-Hydroxy-4a-methyl-2-oxo-3-[[4-(trifluoromethyl)-2-[6-(trifluoromethyl)pyridin-3-yl]phenyl]carbamoy]-6,7-dihydro-5H-pyrrolor[1,2-b]pyridazin-1-yl]methyl]-2,3-difluorophenoxy] acetate], the “Rate of uptake inhibition (%) (1 µM)” value worked out at 87%.

As to `CSC1CN(CCOc2ccc(CN3C(=O)C(C(=O)Nc4ccc(C(F)(F)F)cc4-c4cc(C(F)(F)F)ncn4)=C(O)C4(CCC4)N3C)c(F)c2F)C1` [Example 357], the “Rate of uptake inhibition (%) (1 µM)” value came out at 45%.

On to `CN1N(Cc2ccc(OCCCCOC[C@H](O)CO)c(F)c2F)C(=O)C(C(=O)Nc2ccc(C(F)(F)F)cc2-c2cc(C(F)(F)F)ncn2)=C(O)C12CCC2` [Example 390], for which the “Rate of uptake inhibition (%) (1 µM)” value came out at 58%.

Consider `COCCOc1cc(NC(=O)C2=C(O)C3(CCCC3)N(C)N(Cc3ccc(OCCN(C)CCOC)c(F)c3F)C2=O)c(-c2ncnc(C(F)(F)F)c2C)cc1C(F)(F)F` [Example 439, 7-[[2,3-Difluoro-4-[2-[2-methoxyethyl(methyl)amino]ethoxy]phenyl]methyl]-10-hydroxy-N-[5-(2-methoxyethoxy)-2-[5-methyl-6-(trifluoromethyl)pyrimidin-4-yl]-4-(trifluoromethyl)phenyl]-6-methyl-8-oxo-6,7-diazaspiro[4.5]dec-9-ene-9-carboxamide], for which the “Rate of uptake inhibition (%) (1 µM)” value worked out at 35%.

On to `C[C@]12CCCN1N(Cc1cccc(F)c1F)C(=O)C(C(=O)Nc1ccc(C(F)(F)F)cc1-c1ccc(C(F)(F)F)nc1Br)=C2O` [Example 85], for which the “Rate of uptake inhibition (%) (1 µM)” value amounted to 71%.

As to `C[C@]12CCCN1N(Cc1cccc(F)c1F)C(=O)C(C(=O)Nc1ccc(C(F)(F)F)cc1-c1cnc(Cl)c(C#N)c1)=C2O` [Example 68, (4aR)-N-[2-(6-Chloro-5-cyanopyridin-3-yl)-4-(trifluoromethyl)phenyl]-1-[(2,3-difluorophenyl)methyl]-4-hydroxy-4a-methyl-2-oxo-6,7-dihydro-5H-pyrrolo[1,2-b]pyridazine-3-carboxamide], the “Rate of uptake inhibition (%) (1 µM)” value turned out to be 84%.

For `CN(CCO)CCOc1ccc(CN2C(=O)C(C(=O)Nc3ccc(C(F)(F)F)cc3-c3cc(C(F)(F)F)ncn3)=C(O)C3(CCC3)N2C)c(F)c1F` [Example 347], the “Rate of uptake inhibition (%) (1 µM)” value is given as 28%.

As for `CN(C)S(=O)(=O)c1ccc(-c2nc(C(F)(F)F)ccc2NC(=O)C2=C(O)[C@@]3(C)CCCN3N(Cc3cccc(F)c3F)C2=O)cc1` [Example 87], the “Rate of uptake inhibition (%) (1 µM)” value is given as 84%.
